From the supplement of paper PMC10307832

How the values were obtained:
Assay in all cases: relative viability (nuclei count vs DMSO), 5 days (fraction); higher = more cells survive
GSK-J4 + Crizotinib = compound: CCOC(=O)CCNc1cc(N2CCc3ccccc3CC2)nc(-c2ccccn2)n1 [GSK-J4] + C[C@@H](Oc1cc(-c2cnn(C3CCNCC3)c2)cnc1N)c1c(Cl)ccc(F)c1Cl [Crizotinib] (partner 1 µM)
Procedure, shortened: (§1)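 Lung cancer cell lines were pin-tool dosed in 1536-well plates on the day after seeding, with either a lone drug or a fixed anchor-drug dose plus five library-drug doses (not always all listed) in √10 steps. Nuclei were counted on 4× images after 5 days. Relative viability is the ratio of treated-well to vehicle-well nuclei counts, with each value a median of duplicate plates.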

GSK-J4 + Linsitinib = compound: CCOC(=O)CCNc1cc(N2CCc3ccccc3CC2)nc(-c2ccccn2)n1 [GSK-J4] + C[C@]1(O)C[C@@H](c2nc(-c3ccc4ccc(-c5ccccc5)nc4c3)c3c(N)nccn32)C1 [Linsitinib] (partner 1 µM)
Procedure, shortened: as §1

AZ3146 + Palbociclib = compound: CN1CCC(CC1)OC2=CC(=C(C=C2)NC3=NC=C4C(=N3)N(C(=O)N4C)C5CCCC5)OC [AZ3146] + CC(=O)c1c(C)c2cnc(Nc3ccc(N4CCNCC4)cn3)nc2n(C2CCCC2)c1=O [Palbociclib] (partner 0.5 µM)
Procedure, shortened: as §1

AZ3146 + Decitabine = compound: CN1CCC(CC1)OC2=CC(=C(C=C2)NC3=NC=C4C(=N3)N(C(=O)N4C)C5CCCC5)OC [AZ3146] + Nc1ncn([C@H]2C[C@H](O)[C@@H](CO)O2)c(=O)n1 [Decitabine] (partner 2 µM)
Procedure, shortened: as §1

Row | Cell Line | relative viability (GSK-J4 + Crizotinib; first compound 0.5 µM) | relative viability (GSK-J4 + Crizotinib; first compound 1.581 µM) | relative viability (GSK-J4 + Crizotinib; first compound 5 µM) | relative viability (GSK-J4 + Crizotinib; first compound 15.81 µM) | relative viability (GSK-J4 + Crizotinib; first compound 50 µM) | relative viability (GSK-J4 + Linsitinib; first compound 0.5 µM) | relative viability (GSK-J4 + Linsitinib; first compound 1.581 µM) | relative viability (GSK-J4 + Linsitinib; first compound 5 µM) | relative viability (GSK-J4 + Linsitinib; first compound 15.81 µM) | relative viability (GSK-J4 + Linsitinib; first compound 50 µM) | relative viability (AZ3146 + Palbociclib; first compound 0.08 µM) | relative viability (AZ3146 + Palbociclib; first compound 0.253 µM) | relative viability (AZ3146 + Palbociclib; first compound 0.8 µM) | relative viability (AZ3146 + Palbociclib; first compound 2.53 µM) | relative viability (AZ3146 + Palbociclib; first compound 8 µM) | relative viability (AZ3146 + Decitabine; first compound 0.08 µM) | relative viability (AZ3146 + Decitabine; first compound 0.253 µM) | relative viability (AZ3146 + Decitabine; first compound 0.8 µM) | relative viability (AZ3146 + Decitabine; first compound 2.53 µM) | relative viability (AZ3146 + Decitabine; first compound 8 µM)
1 | 201T | 1.01 | 1.07 | 1.01 | 1.02 | 0.996 | 1.02 | 1.08 | 1.1 | 1.04 | 1.06 | 0.327 | 0.359 | 0.382 | 0.348 | 0.347 | 0.856 | 0.858 | 0.885 | 0.865 | 0.847
2 | A549 | 0.691 | 0.669 | – | 0.536 | 0.605 | 0.559 | – | 0.733 | 0.442 | 0.578 | – | – | – | – | – | 0.318 | 0.284 | 0.332 | 0.316 | 0.205
3 | A-427 | 0.844 | – | 0.852 | 0.591 | 0.362 | 1.07 | – | 1.14 | 1.11 | 0.94 | 0.482 | 0.521 | 0.497 | 0.493 | 0.463 | 0.511 | 0.529 | 0.528 | 0.56 | 0.401
4 | ABC-1 | 1.03 | 0.953 | 1.17 | 0.81 | 0.343 | 0.788 | 0.632 | 1.07 | 0.802 | 0.378 | 0.432 | 0.736 | 0.751 | 0.851 | 0.573 | 1.02 | 1.04 | 1.33 | 1.05 | 1.09
5 | BEN | 0.865 | 0.795 | – | 0.759 | 0.688 | 0.91 | 0.706 | – | 0.925 | 0.823 | – | 0.47 | 0.511 | 0.479 | 0.471 | – | 0.673 | 0.611 | 0.759 | 0.644
6 | CAL-12T | 0.522 | 0.512 | 0.341 | 0.479 | 0.589 | 0.856 | 0.776 | 0.776 | 0.742 | 0.648 | 0.391 | 0.502 | 0.45 | 0.523 | 0.229 | – | – | – | – | –
7 | COR-L23 | 0.671 | 0.567 | – | 0.639 | 0.518 | 0.909 | 0.933 | – | 0.868 | 0.807 | 0.244 | 0.351 | 0.328 | 0.321 | 0.278 | 0.377 | 0.461 | 0.418 | 0.467 | 0.369
8 | COR-L 105 | 0.843 | 0.7 | 0.547 | 0.749 | 0.695 | 0.985 | 0.572 | 0.91 | 1.06 | 0.99 | 0.408 | 0.365 | 0.377 | 0.346 | 0.372 | 0.647 | 0.55 | 0.632 | 0.622 | 0.549
9 | Calu-6 | 0.726 | 0.618 | 0.828 | 0.76 | 0.685 | 0.868 | 0.924 | 0.719 | 0.927 | 0.869 | – | – | – | – | – | – | – | – | – | –
10 | ChaGo-K-1 | 1.03 | – | 0.879 | 1.12 | 0.926 | – | – | – | – | – | 0.935 | 0.927 | 0.894 | 0.896 | 0.862 | 0.509 | 0.502 | 0.509 | 0.531 | 0.501
11 | EBC-1 | 0.191 | 0.206 | 0.192 | 0.212 | 0.19 | 0.937 | 0.758 | 0.789 | 0.795 | 0.709 | – | – | – | – | – | – | – | – | – | –
12 | EKVX | 0.755 | 0.883 | 0.927 | 0.91 | 0.889 | 0.928 | 0.832 | 1.16 | 0.836 | 0.902 | 0.406 | 0.373 | 0.284 | 0.431 | 0.368 | 0.285 | 0.304 | 0.381 | 0.319 | 0.286
13 | EMC-BAC-2 | 0.712 | 0.695 | 0.726 | 0.743 | 0.733 | 0.781 | 0.728 | 0.83 | 0.715 | 0.794 | 0.466 | 0.519 | 0.555 | 0.53 | 0.514 | – | – | 1.09 | 1.02 | 0.907
14 | EPLC-272H | 0.956 | – | 1.14 | 0.816 | 0.915 | 1.16 | – | 1.31 | 1.02 | 1.11 | 0.327 | 0.342 | 0.309 | 0.338 | 0.27 | 0.375 | 0.379 | 0.396 | 0.368 | 0.418
15 | H3255 | 0.869 | 0.767 | 0.855 | 0.764 | 0.642 | 0.902 | 0.952 | 0.838 | 0.84 | 0.707 | 0.331 | 0.294 | 0.311 | 0.344 | 0.332 | 0.604 | 0.805 | 0.562 | 0.678 | 0.604
16 | HARA | 0.975 | 0.962 | – | 0.942 | 0.662 | 0.891 | 0.608 | – | 0.797 | 0.699 | 0.274 | 0.239 | 0.266 | 0.241 | 0.243 | 0.493 | 0.563 | 0.481 | 0.487 | 0.478
17 | HCC-15 | 0.755 | 0.733 | 0.778 | 0.757 | 0.536 | 0.845 | 0.793 | 0.892 | 0.785 | 0.629 | 0.757 | 0.668 | 0.727 | 0.738 | 0.68 | 0.529 | 0.59 | 0.642 | 0.678 | 0.39
18 | HCC-44 | 0.759 | 0.705 | 0.696 | 0.825 | 0.755 | 0.704 | 0.625 | 0.709 | 0.735 | 0.646 | 0.966 | 0.977 | 1.05 | 0.959 | 0.935 | 0.912 | 0.889 | 1.03 | 0.943 | 0.958
19 | HCC-78 | 0.346 | 0.297 | 0.378 | – | 0.354 | 0.44 | 0.499 | 0.701 | – | 0.484 | 0.486 | 0.483 | 0.414 | 0.54 | 0.425 | – | 0.746 | 0.623 | 0.744 | 0.728
